From US20230192648A1, “IMMUNOREGULATORY COMPOUNDS” (NIMML INSTITUTE, priority 2021, published 2023)
Entries after “also recorded” stand apart in the source; their conditions may differ.

Columns and labels:
[1] = test system: genetic model of Alzheimer's disease; experiment: Genetic mouse model of Alzheimer's disease; assay type: in vivo; conditions: oral 10 mg/kg for eight weeks, relative to vehicle
Protocol: Mouse model. Genetically modified mice that spontaneously develop cognitive impairment at 4 months of age and histological signs of disease at 6 months of age were randomized into the project at 24 weeks of age. Mice were orally treated with vehicle or NIM-1001-8 (10 mg/kg) for eight weeks. After eight weeks of treatment, mice were evaluated using a light-dark test to measure the time spent in the light relative to the dark. This is a measure of an anxiety response. Genetically modified mice were compared to age-matched wild-type mice (negative control).
(§1) Flow Cytometry. Brains were collected into RPMI/FBS buffer containing collagenase (300 U/mL) and DNase (50 U/mL) for digestion. Tissues were digested for 30 minutes under stirring at 37° C. Resultant cellular suspensions were filtered through 100 µm strainers, centrifuged (300 x g, 8 min), and washed in fresh RPMI. Following filtration of the resulting single cell suspensions, immune cells were purified by Percoll gradient of cell-containing 40% Percoll overlayed onto 70% Percoll solution. After centrifugation, interphase was collected and washed to obtain enriched immune cell fractions. Cells were labeled with mixtures of extracellular (CD45, CD3, CD4, CD8, CD11b, Gr1) and intracellular (IL17) antibodies in a sequential live staining in 96-well plates. Data was acquired using a FACS Celesta flow cytometer with FACSDiva software.

influenza A (H1N1) = experiment: Influenza A (H1N1) infection of mice, survival; assay type: in vivo, mouse; conditions: 25 mg/kg orally daily, FIG. 4; for delay of first mortality: vehicle mortality beginning at day 6
Protocol: Wild type C57BL/6 mice were anesthetized by isoflurane inhalation. Mice were infected with influenza A (H1N1) intranasally at a challenge titer of 2 x 10^4 TCID50/mL. Mice were treated daily with NIM-1001-2, NIM-1001-8, or NIM-1001-9 at a dose of 25 mg/kg orally via gavage. Mice were monitored daily.

[2] = test system: IMQ-induced model of psoriasis; experiment: Imiquimod (IMQ) induced model of psoriasis; assay type: in vivo, mouse; conditions: oral 20 mg/kg daily
Protocol: IMQ-induced model. C57BL/6 mice were anesthetized, shaved, and briefly exposed to depilatory cream on the surface of the back. Mice were given three days to recover from the procedure prior to entry to the study. After 3 days, mice were challenged with approximately 60 mg of […] imiquimod cream daily by spreading cream over the shaved area. Oral treatment with vehicle or NIM-1001-8 (20 mg/kg) occurred daily.
Analysis. Spleens were excised and crushed by microscope slides. Red blood cells were hypotonically lysed from the resultant suspension. Samples were filtered, washed and centrifuged prior to staining. Cells were labeled with mixtures of extracellular (CD45, CD3, CD4, CD8, CD25, F4/80, CD11b, MHCII) and intracellular (TNF, IL17) antibodies in a sequential live staining in 96-well plates in preparation for flow cytometry. Data was captured on a BD FACS Celesta and analyzed using FacsDiva.

[3] = test system: NOD model of Sjogren's syndrome; experiment: NOD mouse model of Sjogren's syndrome; assay type: in vivo; conditions: relative to vehicle, FIG. 10
Protocol: NOD model. Ten-week-old female NOD mice were treated with vehicle or NIM-1001-8 (2 or 50 mg/kg) daily by oral gavage for four weeks. After conclusion of the treatment period, submandibular glands were excised and fixed in formalin. Glands were processed and H&E-stained slides were prepared. Slides were scored by blinded reviewer, on a 0 to 4 composite scale encompassing level of inflammation and disease.

[4] = test system: DSS model of acute inflammatory bowel disease; experiment: DSS model of acute inflammatory bowel disease; assay type: in vivo, mouse; conditions: oral, 10 mg/kg once daily, relative to vehicle; for proportion of CD4+ T cells in the colonic lamina propria: FIG. 3A; for F4/80hi macrophages (colon): FIG. 3C
Protocol: as §1, with “DSS model. Mice were given DSS in drinking water for seven days. At project initiation, mice were 8 weeks of age and began dosing 24 hours after being placed on DSS. Mice were weighed and scored daily for symptoms of disease (diarrhea, rectal bleeding, rectal inflammation, overall behavior). Treatments were prepared within a 0.5% methylcellulose (12-15 cP) solution. The dosage used was 10 mg/kg delivered once daily. Flow” for “Flow”, “Cytometry. Colons” for “Cytometry. Brains”, “for 60” for “for 30”, “enriched colonic lamina propria” for “enriched immune”, “CD8, CD25, F4/80,” for “CD8,”, “CD11b, MHCII)” for “CD11b, Gr1) and intracellular (IL17)”

[5] = test system: MRL/lpr model of systemic lupus erythematosus; experiment: MRL/lpr genetic mouse model of SLE; assay type: in vivo; conditions: daily orogastric gavage from 12 weeks of age
Protocol: Mouse model. Female MRL/lpr mice were obtained at 8 weeks of age. Mice were followed for four weeks for the development of proteinuria. […] Treatment with NIM-1001-8, or vehicle control, were administered by orogastric gavage daily, beginning at 12 weeks of age, in a 0.5% methylcellulose suspension.
Immunological analysis. Urine was collected for assay for protein content to test for kidney function. Spleens were excised, crushed and filtered to provide a cellular suspension. Red blood cells were lysed. Cells were labeled with mixtures of extracellular (CD45, CD3, CD4, CD8, CD25) and intracellular (FOXP3, IL17) antibodies in a sequential live staining in 96-well plates in preparation for flow cytometry. Data was captured on a BD FACS Celesta and analyzed using FacsDiva.

[6] = test system: experimental autoimmune encephalomyelitis; experiment: Mouse model of experimental autoimmune encephalomyelitis (adoptive transfer of MOG-primed splenocytes); assay type: in vivo; conditions: oral 20 mg/kg from 7 days post-transfer
Protocol: Mouse model. C57BL6 mice were challenged at 10- to 16-weeks of age with MOG immunization with complete Freund’s adjuvant. MOG emulsion was administered to the cervical region and the hind flank at 100 µL per site to each mouse. After 10 days, spleens were harvested. Isolated splenocytes were cultured in the presence of MOG, IL-12 and anti-interferon gamma for 3 days. Splenocytes were then washed and injected into recipient mice at approximately 20 million cells per mouse. Oral treatment with NIM-1001-8 (20 mg/kg) or vehicle was initiated at 7 days post-transfer. Mice were be scored (0-3) daily for disease activity (coordination, gait, paralysis).
Flow Cytometry. Spinal cords were excised and digested with papain and DNase. Immune cells were purified by Percoll gradient. Cells were labeled with mixtures of extracellular (CD45, CD3, CD4, CD8, CD25) and intracellular (IL17) antibodies in a sequential live staining in 96-well plates in preparation for flow cytometry. Data was captured on a BD FACS Celesta and analyzed using FacsDiva.
Histology. Sections of the spinal cord from the lumbar region were extracted and fixed in formalin. Samples were embedded in paraffin and sectioned. By immunohistochemistry, samples were stained for the presence of glial fibrillary acidic protein (GFAP). Slides were assessed microscopically and scored (0-3) for the intensity and frequency of GFAP positive cells. GFAP is a common protein marker for astrocytes in the central nervous system

[7] = test system: MPTP induced model of Parkinson's disease; experiment: MPTP induced mouse model of Parkinson's disease; assay type: in vivo; conditions: oral 25 mg/kg once daily
Protocol: Mouse model. Mice were administered intraperitoneal injections of 1-methyl-4-phenyl-1,2,3,6-tetrahydropyridine (MPTP) and probenecid three times weekly for 4 weeks. In the second week of injections, oral treatment with vehicle or NIM-1001-8 (25 mg/kg) was initiated once daily. After four weeks of injections, motor control was assessed by counting the number of step errors during a challenging beam test. Mice challenged with MPTP were compared to mice challenged with a sham injection (negative control).
Flow Cytometry. Spleens were excised, crushed and filtered to provide a cellular suspension. Red blood cells were lysed. Cells were labeled with mixtures of extracellular (CD45, CD3, CD4, CD8, CD25) and intracellular (IL21, IL17) antibodies in a sequential live staining in 96-well plates in preparation for flow cytometry. Data was captured on a BD FACS Celesta and analyzed using FacsDiva.

[8] = test system: bm12 model of systemic inflammation; experiment: bm12 mouse model of systemic inflammation; assay type: in vivo
[9] = oral gavage daily, 20 mg/kg/day, relative to vehicle, FIG. 2C
[10] = oral gavage daily, 20 mg/kg/day, relative to vehicle; FIG. 2A
[11] = oral gavage daily, 20 mg/kg/day, relative to vehicle; FIG. 2C

CCOC(=O)/C=C/c1cncc(Oc2cc(C(=O)OC)cc(Cl)n2)c1C [NIM-1001-8, methyl (E)-2-chloro-6-((5-(3-ethoxy-3-oxoprop-1-en-1-yl)-4-methylpyridin-3-yl)oxy)isonicotinate]
time spent in the light (light-dark test) ([1]; FIG. 7A, 10 mg/kg): significantly increased; also recorded: restored the time to equal that of the negative control group | proportion of neutrophils in the brain ([1]; FIG. 7B): decreased | proportion of CD4+ IL17+ T cells in the brain ([1]; FIG. 7C): decreased | survival at day 10 (influenza A (H1N1); vehicle 25% survival by day 10): 83% | delay of first mortality (influenza A (H1N1)): two days | proportion of TNF+ CD4+ T cells in the spleen ([2]; relative to vehicle, FIG. 9A): significantly reduced | proportion of IL17+ CD4+ T cells in the spleen ([2]; relative to vehicle, FIG. 9B): significantly reduced | proportion of F4/80hi inflammatory macrophages ([2]; FIG. 9C): decreased | histological severity of disease in the submandibular glands (score 0 to 4) ([3]; 2 mg/kg daily by oral gavage for four weeks): significantly reduced | histological severity of disease in the submandibular glands (score 0 to 4) ([3]; 50 mg/kg daily by oral gavage for four weeks): significantly reduced | proportion of CD4+ T cells in the colonic lamina propria [4]: reduced | F4/80hi macrophages (colon) [4]: significant reductions | urine protein levels, reduction ([5]; relative to vehicle, FIG. 6A): more than two-fold | splenic CD25+ FOXP3+ regulatory T cells ([5]; P < 0.05, FIG. 6B): significant increase | splenic CD4+ IL17+ cells ([5]; P < 0.05, FIG. 6C): significant decrease | overall disease severity (score 0-3) ([6]; FIG. 5A): amelioration | proportion of CD4+ IL17+ T cells in the spinal cord ([6]; FIG. 5B): decreased | GFAP positive staining in the spinal cord ([6]; FIG. 5C): decreased | number of step errors during a challenging beam test ([7]; relative to vehicle, FIG. 8A): significantly reduced; also recorded: near complete abrogation of MPTP effects | CD4+ IL21+ T cells within the spleen ([7]; P < 0.05, FIG. 8B): significant reductions | CD4+ IL17+ T cells within the spleen ([7]; P < 0.05, FIG. 8C): significant reductions | proportion of CD25+ FOXP3+ regulatory T cells in the spleen [8, 9]: significantly increased; also recorded: largest magnitude of increase | spleen size in proportion to overall body weight [8, 10]: significantly reduced

CCOC(=O)/C=C/c1cncc(Oc2cc(C(=O)NC)cc(Cl)n2)c1C [NIM-1001-4]
proportion of CD25+ FOXP3+ regulatory T cells in the spleen [8, 9]: significantly increased; also recorded: largest magnitude of increase | spleen size in proportion to overall body weight [8, 10]: reduced the normalized spleen size at a lesser degree

CCc1noc(/C=C/c2cncc(Nc3cc(-c4nc(C)no4)cc(Cl)n3)c2)n1 [NIM-1001-11]
proportion of CD4+ T cells in the colonic lamina propria [4]: reduced | F4/80hi macrophages (colon) [4]: significant reductions

CCNC(=O)/C=C/c1cncc(Nc2nccc(C(=O)NC)n2)c1 [NIM-1001-12]
proportion of CD4+ T cells in the colonic lamina propria [4]: reduced | F4/80hi macrophages (colon) [4]: significant reductions | spleen size in proportion to overall body weight [8, 10]: significantly reduced | proportion of CD25+ FOXP3+ regulatory T cells in the spleen [8, 11]: significantly increased

CCc1noc(/C=C/c2cncc(Oc3cc(-c4nc(C)no4)cc(Cl)n3)c2C)n1 [NIM-1001-2]
survival at day 10 (fraction of group) (influenza A (H1N1); vehicle 25% survival by day 10): two-thirds | delay of first mortality (influenza A (H1N1)): one day | proportion of CD4+ T cells in the colonic lamina propria [4]: reduced | spleen size in proportion to overall body weight [8, 10]: significantly reduced | proportion of CD25+ FOXP3+ regulatory T cells in the spleen [8, 11]: significantly increased

CCOC(=O)/C=C/c1cncc(Nc2cc(C(=O)OC)cc(Cl)n2)c1 [NIM-1001-10]
spleen size in proportion to overall body weight [8, 10]: reduced the normalized spleen size at a lesser degree

CCNC(=O)/C=C/c1cncc(Oc2nccc(C(=O)NC)n2)c1C [NIM-1001-9]
survival at day 10 (fraction of group) (influenza A (H1N1); vehicle 25% survival by day 10): two-thirds | delay of first mortality (influenza A (H1N1)): one day | spleen size in proportion to overall body weight [8, 10]: significantly reduced | proportion of CD25+ FOXP3+ regulatory T cells in the spleen [8, 11]: significantly increased
